Data reported in patent US20060154993A1, “Method for treating and preventing male infertility” (priority 2004, published 2006).
Where “and” joins values, the source holds several entries; their conditions need not be identical. Equal entries are not always repeated. Marks after values point to notes of the source that are not given here.

Assays:
[1] = CoQ10 levels in seminal plasma and sperm cells by HPLC-EC, idiopathic asthenospermia patients on CoQ10; type: in vivo, human
Method: (§1) Twenty-two patients (mean age, 31 years; range, 25-39 years) with idiopathic asthenospermia were enrolled in the study. The patients were selected at the Andrology Unit of the Division of Endocrinology, Umberto I Hospital, University of Ancona, Ancona, Italy. All subjects underwent medical screening, including history and clinical examination, and presented with a clinical history of primary infertility of at least 3 years. Testicular volume was evaluated in each patient using Prader's orchidometer. To accomplish a complete diagnosis, the following investigations were also performed: semen analysis; Mar-test (SperMar test, Diasint, Florence, Italy) for anti-spermatozoa antibodies (Ab); sperm culture and urethral specimens collection for Chlamydia and Mycoplasma ureoliticum detection; FSH, LH, T, E2, and PRL assays, using commercial RIA kits; and testicular, prostatic, and seminal vesicle ultrasound and echo-color Doppler of venous spermatic plexus for anatomical abnormalities and varicocele detection.
(§2) The enrolled patients underwent dietary implementation of CoQ10 (PharmaNord, Veyle, Denmark), 200 mg/day twice daily orally for 6 months. Clinical examination, semen analysis including computer-assisted sperm analysis (CASA), and CoQ10 and PC assays were performed at baseline and after 6 months of therapy. An additional semen analysis was performed 6 months after the termination of therapy (wash-out). This study was approved by the Institutional Review Board of the University of Ancona-Umberto I Hospital. All patients provided their written informed consent and completed the entire trial.
The liquefied semen samples were centrifuged at room temperature at 500×g for 18 minutes. The sperm cell pellet was washed with 0.15 M NaCl. Two hundred fifty microliters of 1-propanol were added to 50 μL of a cellular suspension containing 10^6 sperm cells or to 50 μL of seminal plasma. After mixing for 1 minute, the samples were centrifuged for 5 minutes at 2,000×g and the obtained supernatants were injected into the high pressure liquid chromatography (HPLC) apparatus. […]
CoQ10 levels were assayed in sperm cells and seminal plasma using a Beckman Gold HPLC System (Beckman Instruments, San Ramon, Calif.) equipped with an electrochemical detector (EC, ESA 5100, Bedford, Mass.) as described elsewhere. The detector was supplied with a guard cell and an analytical cell with two electrodes in series; the potentials applied to the electrodes were, respectively, +0.6V, −0.45V, and +0.6V; chromatograms were recorded from the second analytical cell signal. One hundred microliters of samples were directly injected into the analytical column and analyzed; an analytical column was a Supelcosil reverse-phase C18, 15 cm×0.46 cm ID, 3 μm (Supelco, Inc., Bellefonte, Pa.). […]

[2] = Phosphatidylcholine (PC) levels in seminal plasma and sperm cells by HPLC-UV after CoQ10 treatment; type: in vivo, human; conditions: after 6 months CoQ10 orally, mean ± SD, P<0.05
Method: as §2
Analysis of PC was performed according to Frei et al. with the modification described by Yamamoto et al. After adding 1 mL of methanol to a cellular suspension containing about 10^6 sperm cells or to 50 μL of seminal plasma, samples were mixed for 1 minute; then 6 mL of hexane were added and samples were mixed again before centrifugation (10 minutes at 500 g). Supernatant was collected and dried with a nitrogen stream. Dried sample residues were dissolved in 300 μL of ethanol.
Phosphatidylcholine was essentially determined according to Frei et al. An analytical column was a Supelcosil LCSi, 25 cm×0.46 cm ID, 5 μm (Supelco). A Jasco HPLC System (Jasco Corporation, Tokyo, Japan) provided with two PU-980 pumps, and a UV detector set at 205 nm wavelength was used for detention of total PC.

sperm cells [3] = test: Seminal fluid analysis (WHO criteria): sperm concentration, motility, morphology; type: in vivo, human; conditions: for Sperm concentration / Teratozoospermia: NS
Method: as §2
Semen quality was assessed by the same biologist in terms of sperm concentration, motility, and morphology in accordance with WHO criteria. Briefly, seminal fluid was obtained by masturbation after 3-5 days of sexual abstinence. The samples were kept in the andrology lab at room temperature and processed within 1 hour from ejaculation. Sperm count was determined with the Makler chamber. Motile spermatozoa were assessed by phase contrast microscopy (10 μL of semen was delivered onto a glass slide and covered with a 22 mm×22 mm coverslip) and graded as follows: class a and b, fast and weak forward motility; class c, nonprogressive motility; class d, immobile spermatozoa. Sperm morphology was evaluated on smears of seminal fluid, stained with the Giemsa method, and observed by oil immersion light microscopy. Conventional immunocytochemistry was used to assess WBC.

sperm cells [4] = test: Computer-assisted sperm analysis (CASA) of sperm cell motility; type: in vivo, human; conditions: after 6 months treatment, P<0.05; for Straight progressive velocity (VSL): baseline 15.20 ± 1.30; for Curvilinear velocity (VCL): baseline 26.31 ± 1.50
Method: as §2
In addition, CASA for sperm cell motility was performed, as reported elsewhere. One semen aliquot (3 μL) was placed in a 20-μm depth chamber. Two 20-μm depth cell-VU chambers (Conception Technologies, La Jolla, Calif.) were loaded, and six different fields per chamber were randomly examined and at least 200 sperm for each field of the chamber were scored. Percentages of motile sperm and movement characteristics were analyzed using an automated analyzer at 37° C. (CellTrack VP 110, Motion Analysis Corporation, Palo Alto, Calif.). Sperm velocity and kinetic characteristics were evaluated only for motile sperm and expressed as mean values considering curvilinear velocity (VCL) and straight progressive velocity (VSL).

[5] = tested on: idiopathic asthenospermia; test: Spontaneous pregnancy after CoQ10 therapy; type: in vivo, human; conditions: within 3 months of the discontinuation of therapy
Method: as §1
There was no apparent female factor, since all partners (mean age, 28 years; range, 23-35 years) were ovulating regularly as formally proven by luteal phase progesterone (P) levels and no abnormal fallopian tube anatomy was detected after hysterosalpingography. […]

Safety assessment = type: in vivo, human; conditions: oral administration, 6 months
Description: Safety assessment included medical history, physical examination, hematological screening, and serum chemistry at all visits and the monitoring of drug-related adverse events by recordation in patient diaries.

[6] = after chronic administration of the quinone; commonly found; cited from earlier work
[7] = after 6 months wash-out, listed as coenzyme Q10

COC1=C(OC)C(=O)C(C/C=C(\C)CC/C=C(\C)CC/C=C(\C)CC/C=C(\C)CC/C=C(\C)CC/C=C(\C)CC/C=C(\C)CC/C=C(\C)CC/C=C(\C)CCC=C(C)C)=C(C)C1=O [CoQ10, ubiquinone]
CoQ10, seminal plasma ([1]; after 6 months CoQ10 200 mg/day twice daily orally, baseline 42.0 ± 5.1, mean ± SD, P<0.005): 127.1 ± 1.9^a ng/mL | CoQ10, sperm cells ([1]; after 6 months CoQ10 orally, baseline 3.1 ± 0.4, mean ± SD, P<0.05): 6.5±0.3 ng/10^6 cells and 6.5 ± 0.3^b ng/10^6 cells | seminal plasma CoQ10 post-treatment level relative to basal ([1]; after 6 months treatment): 3 times | concentration at 6 months ([1]; male, human, seminal plasma, po, after 6 months CoQ10 200 mg/day twice daily orally, baseline 42.0 ± 5.1, mean ± SD, P<0.005): 127 ± 1.9 ng/mL | PC, seminal plasma ([2]; baseline 1.49 ± 0.50): 5.84±1.15 μM and 5.84 ± 1.15^b μM | PC, sperm cells ([2]; baseline 6.83 ± 0.98): 9.67±1.23 nmol/10^6 cells and 9.67 ± 1.23^b nmol/10^6 cells | Forward Motility (class a+b) (sperm cells [3]; after 6 months treatment, baseline 9.13 ± 2.50, P<0.05): 16.34%±3.43 | Forward Motility (class a+b) (sperm cells [3]; after 6 months treatment, baseline 9.13 ± 2.50, P<0.05, listed as coenzyme Q10): 16.34 ± 3.43^a % | Sperm concentration (sperm cells [3]; after 6 months treatment, baseline 27.60 ± 7.41): No significant differences | Sperm concentration (sperm cells [3]; after 6 months treatment, baseline 27.60 ± 7.41, listed as coenzyme Q10): 25.92 ± 5.63, NS 106/mL | Teratozoospermia (sperm cells [3]; after 6 months treatment, baseline 69.76 ± 4.63): No significant differences | Teratozoospermia (sperm cells [3]; after 6 months treatment, baseline 69.76 ± 4.63, listed as coenzyme Q10): 67.82 ± 7.44, NS % | Forward Motility (class a+b) (sperm cells [3]; after 6 months wash-out): 9.50% ±2.28 | Sperm concentration (sperm cells [3]; after 6 months wash-out): no significant differences | Teratozoospermia (sperm cells [3]; after 6 months wash-out): no significant differences | Sperm concentration (sperm cells [3]; [7]): 26.18 ± 4.04, NS 106/mL | Teratozoospermia (sperm cells [3]; [7]): 66.23 ± 5.34, NS % | Forward Motility (class a+b) (sperm cells [3]; [7]): 9.50 ± 2.28^b % | Straight progressive velocity (VSL) (sperm cells [4]): 20.40±2.17 um/second | Straight progressive velocity (VSL) (sperm cells [4]; listed as coenzyme Q10): 20.40 ± 2.17^a um/second | Curvilinear velocity (VCL) (sperm cells [4]): 46.43±2.28 um/second | Curvilinear velocity (VCL) (sperm cells [4]; listed as coenzyme Q10): 46.43 ± 2.28^a um/second | patients who achieved spontaneous pregnancy ([5]; three out of 22 patients): 13.6% | pregnancy rate per cycle [5]: 2.4% | laboratory abnormalities (Safety assessment): no laboratory abnormalities were observed | tolerability (Safety assessment): generally well tolerated | increase of CoQ10 concentration in blood plasma compared with baseline value [6]: 2-3 times
